Consider two compounds from US20130230458A1, “Cell Permeable Inhibitors of Anaphase Promoting Complex” (PRESIDENT AND FELLOWS OF HARVARD COLLEGE, priority 2010, published 2013).

SMILES strings stand for the structures. Where a SMILES comes first, the peptide text is derived from it. The star is where a group is joined. Cbz = O=C(OCc1ccccc1)*

Assay [1] concerns HeLa H2B-GFP cells. It counts as cell-based, human. To be noted: double thymidine synchronized, drugs 10 hrs after release; proTAME 3 μM; MG132 concentration not given. As for the experimental part:
To determine whether proTAME treatment can enhance mitotic arrest and cell death induced by taxol or a proteasome inhibitor (MG132), HeLa H2B-GFP cells were co-treated with low doses of the microtubule poison Taxol or the proteasome inhibitor MG132 in combination with a low dose of proTAME.
Unsychronized HeLa H2B-GFP cells were treated with DMSO (control), taxol 10 nM or proTAME 3 μM or a combination of Taxol 10 nM and proTAME 3 μM (FIG. 26). The cells were imaged by FITC fluorescence microscopy to monitor the cell cycle and mitotic events.
To analyze interactions between proTAME and a proteasome inhibitor (FIG. 27), HeLa H2B-GFP cells were synchronized by double thymidine block (2 mM thymidine block for 18 hrs, release in medium for 8 hrs 2 mM thymidine block for 18 hrs), and treated with the drugs 10 hrs after release from the block as the cells just entered mitosis.

Assay [2] relates to HeLa cells. In words: Live imaging of HeLa cells expressing Histone 2B-GFP (Examples 1 and 2). It counts as cell-based, human. To be noted: 3 μM MG132. The text has this:
Cumulative frequency curves of mitotic duration were plotted.
The same experiment in 1B was done with proAAME.
Synchronized HeLa cells were transfected with Mad2/control siRNA followed by drug treatments. Cumulative frequency curves of mitotic duration were plotted.
Asynchronous HeLa cells were transfected with Mad2 or control siRNA.
For comparison, the curves obtained in H2B-GFP fluorescent imaging experiment shown in FIG. 1B were plotted on the same graph.

The test system of assay [3] is HeLa H2B-GFP cells. In words: Chromosome congression analysis. The format is cell-based, human. As for the experimental part:
HeLa H2B-GFP cells were plated in 35 mm glass-bottom dishes (MatTek) in DMEM+10% FBS at 20% confluence one day prior to the experiment and synchronized by double thymidine block as described above. Drugs were added as follows to a final volume of 3 ml from 2× concentrated preparation in culture medium. DMSO (0.06%), proTAME (3 and 12 μM) or 10 nM Nocodazole were added 8 h after release from the second block, while MG132 (10 μM) was added at 10 h. H2B-GFP was imaged for 4 hrs every 3 min at 40× magnification as described above.

The subject of assay [4] is HeLa H2B-GFP cells. In words: Live cell imaging of mitotic duration and cell fate. The format is cell-based, human. As for the experimental part:
Detailed siRNA transfection and drug treatment schemes are described in supplemental experimental procedures. HeLa H2B-GFP cells were plated in DMEM with 10% FBS at 20% confluence. […] Live cell imaging was performed at 12 minute intervals on a Nikon TE2000E PFS inverted microscope fitted with an incubation chamber maintained at 37° C. and supplied with 5% CO2. Cell division was tracked by manual inspection of movies, and mitotic duration was measured as the time between the first frame of chromosome condensation and the frame of chromosome segregation (anaphase), decondensation (mitotic exit without anaphase) or cell death (chromosomes shrinking to a small bright dot).
The imaging plate was mounted onto a motorized stage (Prior ProScan II) on a Nikon TE2000E PFS inverted microscope fitted with an incubation chamber maintained at 37° C. and supplied with 5% CO2. […] TIFF files of each image were exported from Elements and used to build stacks and Quicktime movies with Metamorph imaging software (Molecular Devices). For manual analysis, mitotic duration is counted as the time between the first frame of chromosome condensation and the frame of chromosome segregation (anaphase) or decondensation (mitotic exit in the presence of nocodazole) or cell death (chromosomes shrinking to a small bright dot).
HeLa H2B-GFP cells were plated in a 24-well plate in DMEM 10% FBS at 20% confluence one day prior to experiment and synchronized by double thymidine block as described above. […] Live cell imaging was set up as described above.
HeLa H2B-GFP cells were plated in a 24-well plate in DMEM+10% FBS at 20% confluence one day prior to the experiment and synchronized by double thymidine block as described above. The cells were released from the first thymidine block into 200 μl OptiMem without FBS. Transfection was performed immediately after the first thymidine release. […] The two mixtures were left at room temperature for 5 min before being mixed together and incubated for additional 20 min and then added to the cells to a final volume of 250 μl. 4 h after transfection, 250 μl of DMEM+20% FBS were added to cells.
HeLa H2B-GFP cells were plated in glass-bottom 24-well plates at 20% confluence one day prior to the experiment and synchronized by double thymidine block as described above. […] Cells were treated with 100 nM Hesperadin or DMSO 8 h after release from the second thymidine block and live cell imaging was set up as described above.
HeLa H2B-GFP cells were plated in a 24-well plate in DMEM+10% FBS at 20% confluence one day prior to experiment and synchronized by double thymidine block as synchronized above. […] Live cell imaging was set up as described above.
HeLa H2B-GFP cells were plated in a 24-well plate in DMEM+10% FBS at 20% confluence one day prior to experiment and synchronized by double thymidine block as described above. […] Untreated cells were used as the control. Live cell imaging was set up as described above. […] Alternatively, at 10 h after release from the second block, 10 μM MG132 with or without 25 μg/ml cycloheximide was added to the cells. […] Live cell imaging was set up as described above.
HeLa H2B-GFP cells were plated in a 24-well plate in DMEM+10% FBS at 20% confluence one day prior to experiment and synchronized by double thymidine block as described above. Mad2 siRNA transfection was performed as described above. At 10 h after release from the second block, 10 μM MG132 with or without 25 μg/ml cycloheximide was added to the cells. Live cell imaging was set up as described above. Manual analysis was focused only on cells that entered mitosis after MG132 addition.

Assay [5] has as its system cyclin A2-GFP. In words: Exogenous cyclin-GFP expression, live-cell imaging and quantitation (cyclin A2-GFP). It counts as cell-based, human. To be noted: HeLa H2B-RFP; 20 μM proTAME or proAAME, 150 nM nocodazole. As for the experimental part:
(§1) HeLa H2B-RFP cells were transduced with cyclin B1-GFP or cyclin A2-GFP adenovirus for 40 h. Phenol Red-Free DMEM (Mediatech) supplemented with 10% FBS and 1:100 Penicillin-Streptomycin-Glutamine (Mediatech) was used as imaging medium. 20 μM proTAME, […] or 150 nM nocodazole was added 45 min prior to the start of imaging. Live cell imaging was set up as described above except that the cells were plated in an 8-well chambered coverglasses (NUNC Lab-tek 155411). Four positions per treatment group were imaged with DIC transmitted light, red fluorescence, and green fluorescence (Semrock GFP/HcRed “Pinkel” filter set) at 12 min intervals for 24 h. Stacks of red and green fluorescence were merged, saved as AVI video files and analyzed using ImageJ. For quantitation, the first GFP-positive cells that undergo mitosis in three separate movies were chosen, giving at least 30 cells quantitated for each treatment group. Mean intensity values for the green channel were collected for a cytoplasmic region of a cell upon mitotic entry, mitotic exit, or after 1 h of mitotic arrest. At the same time points, background mean green intensity was determined and individually subtracted from the cytoplasmic mean intensity. This background corrected mean intensity value was then used to determine the percentage of the original GFP signal remaining at the completion of division (for the control cells) or after 1 h of mitotic arrest (for the nocodazole and proTAME treated cells). The average values for all quantitated cells were plotted with the error bars representing standard error of the mean.

Assay [6] has as its target T1, APC (Homo sapiens, UniProt P30260).
T1 construct: endogenous in cells; host or cells: HeLa cells (synchronised; in some experiments also Mad2/BubR1 siRNA and cyclin B1Δ107 adenovirus)
In words: Cdc20/Cdh1 binding assay in HeLa cells. It counts as cell-based. To be noted: 12 μM, HeLa released from nocodazole block. Here is the method:
HeLa cells in DMEM 10% FBS were plated in T25 flasks at 20% confluence one day prior to the experiment. They were then synchronized by a double thymidine block (18 h for the first block, 8 h release and another 18 h for the second block, thymidine concentration: 2 mM). For analysis of Cdh1 binding, cells were released into […] from the second thymidine block for 13 h and then washed into fresh medium. Six h later, cells were treated with 12 μM proTAME or […] or 0.06% DMSO for 2 h and then collected by trypin digrestion. For analysis of Cdc20 binding, cells were transfected with indicated siRNAs during the first release from thymidine block after two washes with DPBS (CellGro 21-030-CV) and addition of 6.3 ml OptiMEM. A volume (79 μl) of 20 μl Control siRNA#3 or a 1:1 mix of 20 μl MAD2 siRNA and BubR1 siRNA (Dharmacon D-004101-01, 5′-[…]-3′ (SEQ ID NO: 11)) was mixed in 1381 μl OptiMEM in a tube, 23.7 μl OligoFectamine were mixed with 94.1 μl OptiMEM in a second tube. After 5 min incubation at RT, the tubes contents were mixed and siRNA-reagent complexes were allowed to form for 20 min at RT. The transfection mixes were added to cells in OptiMEM and FBS was added to 10% after 5 h transfection. Cyclin B1-4107 expressing adenovirus (1:100) was added at the start of the second thymidine block and kept in the medium for all subsequent steps. […]

In assay [7] the test system is hTERT-RPE1 H2B-GFP cells. Description: Live cell imaging of mitotic duration in hTERT-RPE1 cells. It counts as cell-based. As for the experimental part:
FIG. 18A is a graph and table showing that proTAME induces a mitotic delay in hTERT-RPE1 H2B-GFP cells. Asynchronous hTERT-RPE1 H2B-GFP cells were treated with 0.06% DMSO, 6 μM proTAME or 12 μM proAAME. Cells were imaged at 12 min interval. Cumulative frequency curves of mitotic duration and cell fate distribution are shown.
The imaging plate was mounted onto a motorized stage (Prior ProScan II) on a Nikon TE2000E PFS inverted microscope fitted with an incubation chamber maintained at 37° C. and supplied with 5% CO2. A 20× Plan Apo 0.75 NA or 40× Plan Fluor 0.75 NA objective lens was used as indicated and images were collected with 2×2 binning DIC or GFP fluorescent images were taken every 12 min (unless otherwise specified) for 36 h with a Hamamatsu ORCA cooled CCD camera and Nikon Elements Software. TIFF files of each image were exported from Elements and used to build stacks and Quicktime movies with Metamorph imaging software (Molecular Devices). For manual analysis, mitotic duration is counted as the time between the first frame of chromosome condensation and the frame of chromosome segregation (anaphase) or decondensation (mitotic exit in the presence of nocodazole) or cell death (chromosomes shrinking to a small bright dot).

Assay [8] concerns cyclin B1-GFP. In words: Exogenous cyclin-GFP expression, live-cell imaging and quantitation (cyclin B1-GFP). It counts as cell-based, human. To be noted: HeLa H2B-RFP; 20 μM proTAME or proAAME, 150 nM nocodazole. As for the experimental part: as §1
Setting [9] is: proTAME 12 μM, MG132 10 μM, Nocodazole 10 nM.
Where [10] appears, read: asynchronous hTERT-RPE1 H2B-GFP, proAAME 12 μM, proTAME 6 μM.
[11] abbreviates: 12 μM, double thymidine synchronized, added 8 h after release.

T1 sequence (P30260 whole entry): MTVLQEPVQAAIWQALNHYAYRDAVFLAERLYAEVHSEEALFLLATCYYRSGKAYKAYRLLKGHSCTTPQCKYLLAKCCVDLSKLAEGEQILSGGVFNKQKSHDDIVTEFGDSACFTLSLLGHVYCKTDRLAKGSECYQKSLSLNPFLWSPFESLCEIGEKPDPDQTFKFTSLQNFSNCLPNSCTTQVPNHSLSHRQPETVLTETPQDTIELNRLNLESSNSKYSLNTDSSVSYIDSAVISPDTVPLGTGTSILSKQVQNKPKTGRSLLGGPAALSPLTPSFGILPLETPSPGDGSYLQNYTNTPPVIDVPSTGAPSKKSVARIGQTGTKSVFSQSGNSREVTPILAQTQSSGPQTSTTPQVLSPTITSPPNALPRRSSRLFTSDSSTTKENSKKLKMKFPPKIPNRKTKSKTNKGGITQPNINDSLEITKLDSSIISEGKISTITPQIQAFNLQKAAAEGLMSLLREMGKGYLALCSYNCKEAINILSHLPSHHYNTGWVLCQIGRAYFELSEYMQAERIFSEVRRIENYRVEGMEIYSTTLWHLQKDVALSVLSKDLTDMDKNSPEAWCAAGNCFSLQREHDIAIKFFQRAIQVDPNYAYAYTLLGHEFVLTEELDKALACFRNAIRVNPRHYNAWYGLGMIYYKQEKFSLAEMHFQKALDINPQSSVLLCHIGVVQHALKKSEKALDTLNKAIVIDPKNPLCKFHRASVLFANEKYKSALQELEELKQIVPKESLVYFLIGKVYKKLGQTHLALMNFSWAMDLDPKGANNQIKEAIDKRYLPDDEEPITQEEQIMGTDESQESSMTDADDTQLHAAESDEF

With `CC(C)C[C@@H](C=O)NC(=O)[C@H](CC(C)C)NC(=O)[C@H](CC(C)C)NC(=O)OCc1ccccc1` [MG132, reference compound] (Cbz-Leu-Leu-Leu-aldehyde), the “Median mitotic delay / arrest” value in assay [1] was 276 min. For the same compound, the “Mad2-dependence of mitotic arrest” value in assay [2] was “partially dependent on Mad2”. Further, the “Delay in chromosome congression (in words)” value in assay [3] (3 μM proTAME or 10 μM MG132) was “no delay in chromosome congression”. Besides, in assay [3] (setting [9]), the “Average chromosome congression time (prophase to full metaphase congression)” value turned out to be 21.6 min and the “Median chromosome congression time (prophase to full metaphase congression)” value turned out to be 21 min. Moreover, in assay [4] (3 μM MG132, control cells), the “Cells that exited mitosis during the 30 h experiment” value is 10%. Besides, in assay [4] (MG132 alone), the “Time a normal-appearing metaphase plate is maintained” value was “over 5 h”.

For the compound `COC(=O)[C@H](CC(C)N=C(NC(=O)OCOC(=O)Cc1ccccc1)NC(=O)OCOC(=O)Cc1ccccc1)NC(C)=O` (stereo partly drawn) [proAAME, methyl(S)-2-(acetyl)amino-4-[[bis[[[[(phenylacetyl)oxy]methoxy]carbonyl]amino]methylene]amino]pentanoate], in assay [5], the “Average cyclin A2-GFP intensity remaining at 60 min vs onset of mitosis” value is 0.08 fraction remaining and the “Median cyclin A2-GFP intensity remaining at 60 min vs onset of mitosis” value is 0.06 fraction remaining. The “Cdh1 association with the APC in G1 cells” value in assay [6] is “did not”. Besides, in assay [7] (setting [10]), the Average mitotic duration was 32.1 min and the Median mitotic duration is reported as 36 min. For the same compound, the Median mitotic duration in assay [7] (proAAME-treated hTERT-RPE1 cells) stood at 24 min. Further, in assay [4] (12 μM), the Mitotic phenotype entry is given as “no effect”. In assay [4] (setting [11]), the Average mitotic duration was 100.5 min and the Median mitotic duration is given as 84 min. Moreover, in assay [8], the “Average cyclin B1-GFP intensity remaining at 60 min vs onset of mitosis” value stood at 0.15 fraction remaining and the “Median cyclin B1-GFP intensity remaining at 60 min vs onset of mitosis” value was 0.15 fraction remaining.
